Active and inactive are the calls of the source. The rule behind the calls is not given here.
Key:
Mus musculus [1] = species: Mus musculus; experiment: Effect on Lipc mRNA expression levels in liver of KK-Ay diabetic mouse model at 0.4 to 1.1 mg added daily to normal chow pellets for 10 weeks by qRT-PCR analysis; format: functional, organism-based
Mus musculus [2] = species: Mus musculus; experiment: Effect on Acaca mRNA expression levels in muscle of KK-Ay diabetic mouse model at 0.4 to 1.1 mg added daily to normal chow pellets for 10 weeks by qRT-PCR analysis; format: functional, organism-based
Mus musculus [3] = species: Mus musculus; experiment: Effect on PPARGC1alpha mRNA expression levels in adipose tissue of KK-Ay diabetic mouse model at 0.4 to 1.1 mg added daily to normal chow pellets for 10 weeks by qRT-PCR analysis; format: functional, organism-based
Mus musculus [4] = species: Mus musculus; experiment: Toxicity in KK-Ay diabetic mouse model assessed as effect on average 24 hrs food consumption by measured food consumption at 0.4 mg added daily to normal chow pellets for 10 weeks (reference value: 4.7 +/- 0.2 g); format: organism-based; conditions: in vivo, po
Mus musculus [5] = species: Mus musculus; experiment: Effect on 18s rRNA expression levels in liver of KK-Ay diabetic mouse model at 0.4 to 1.1 mg added daily to normal chow pellets for 10 weeks by qRT-PCR analysis; format: functional, organism-based
Mus musculus [6] = species: Mus musculus; experiment: Effect on PKCdelta mRNA expression levels in muscle of KK-Ay diabetic mouse model at 0.4 to 1.1 mg added daily to normal chow pellets for 10 weeks by qRT-PCR analysis; format: functional, organism-based
Mus musculus [7] = species: Mus musculus; experiment: Effect on G6PD mRNA expression levels in adipose tissue of KK-Ay diabetic mouse model at 0.4 to 1.1 mg added daily to normal chow pellets for 10 weeks by qRT-PCR analysis; format: functional, organism-based
Mus musculus [8] = species: Mus musculus; experiment: Antidiabetic activity in KK-Ay diabetic mouse model assessed as effect on total cholesterol level at 0.14 to 1.1 mg added daily to normal chow pellets for 10 weeks by colorimetric analysis; format: functional, organism-based
Mus musculus [9] = species: Mus musculus; experiment: Effect on PPARGC1alpha mRNA expression levels in liver of KK-Ay diabetic mouse model at 0.4 to 1.1 mg added daily to normal chow pellets for 10 weeks by qRT-PCR analysis; format: functional, organism-based
Mus musculus [10] = species: Mus musculus; experiment: Effect on CD36 mRNA expression levels in muscle of KK-Ay diabetic mouse model at 0.4 to 1.1 mg added daily to normal chow pellets for 10 weeks by qRT-PCR analysis; format: functional, organism-based
Mus musculus [11] = species: Mus musculus; experiment: Effect on GYS2 mRNA expression levels in liver of KK-Ay diabetic mouse model at 0.4 to 1.1 mg added daily to normal chow pellets for 10 weeks by qRT-PCR analysis; format: functional, organism-based
Mus musculus [12] = species: Mus musculus; experiment: Effect on Lipc mRNA expression levels in muscle of KK-Ay diabetic mouse model at 0.4 to 1.1 mg added daily to normal chow pellets for 10 weeks by qRT-PCR analysis; format: functional, organism-based
Mus musculus [13] = species: Mus musculus; experiment: Antidiabetic activity in KK-Ay diabetic mouse model assessed as non-fasting blood glucose level at 0.4 mg added daily to normal chow pellets for 10 weeks (reference value: 26.2 +/- 1.2 mmol/L); format: functional
Mus musculus [14] = species: Mus musculus; experiment: Effect on Mtor mRNA expression levels in muscle of KK-Ay diabetic mouse model at 0.4 to 1.1 mg added daily to normal chow pellets for 10 weeks by qRT-PCR analysis; format: functional, organism-based
Mus musculus [15] = species: Mus musculus; experiment: Effect on InsR mRNA expression levels in adipose tissue of KK-Ay diabetic mouse model at 0.4 to 1.1 mg added daily to normal chow pellets for 10 weeks by qRT-PCR analysis; format: functional, organism-based
Mus musculus [16] = species: Mus musculus; experiment: Effect on Pi3K mRNA expression levels in adipose tissue of KK-Ay diabetic mouse model at 0.4 to 1.1 mg added daily to normal chow pellets for 10 weeks by qRT-PCR analysis; format: functional, organism-based
Mus musculus [17] = species: Mus musculus; experiment: Effect on PPARGC1alpha mRNA expression levels in muscle of KK-Ay diabetic mouse model at 0.4 to 1.1 mg added daily to normal chow pellets for 10 weeks by qRT-PCR analysis; format: functional, organism-based
Mus musculus [18] = species: Mus musculus; experiment: Effect on GYS2 mRNA expression levels in adipose tissue of KK-Ay diabetic mouse model at 0.4 to 1.1 mg added daily to normal chow pellets for 10 weeks by qRT-PCR analysis; format: functional, organism-based
Mus musculus [19] = species: Mus musculus; experiment: Effect on Mtor mRNA expression levels in adipose tissue of KK-Ay diabetic mouse model at 0.4 to 1.1 mg added daily to normal chow pellets for 10 weeks by qRT-PCR analysis; format: functional, organism-based
Mus musculus [20] = species: Mus musculus; experiment: Effect on PKCdelta mRNA expression levels in liver of KK-Ay diabetic mouse model at 0.4 to 1.1 mg added daily to normal chow pellets for 10 weeks by qRT-PCR analysis; format: functional, organism-based
Mus musculus [21] = species: Mus musculus; experiment: Effect on PPARalpha mRNA expression levels in muscle of KK-Ay diabetic mouse model at 0.4 to 1.1 mg added daily to normal chow pellets for 10 weeks by qRT-PCR analysis; format: functional, organism-based
Mus musculus [22] = species: Mus musculus; experiment: Effect on AMPKalpha2 mRNA expression levels in muscle of KK-Ay diabetic mouse model at 0.4 to 1.1 mg added daily to normal chow pellets for 10 weeks by qRT-PCR analysis; format: functional, organism-based
Mus musculus [23] = species: Mus musculus; experiment: Effect on Sirt1 mRNA expression levels in adipose tissue of KK-Ay diabetic mouse model at 0.4 to 1.1 mg added daily to normal chow pellets for 10 weeks by qRT-PCR analysis; format: functional, organism-based
Mus musculus [24] = species: Mus musculus; experiment: Antidiabetic activity in KK-Ay diabetic mouse model assessed as decrease in GCRG mRNA expression levels in muscle tissue at 0.4 mg added daily to normal chow pellets for 10 weeks by qRT-PCR analysis; format: functional, organism-based
Mus musculus [25] = species: Mus musculus; experiment: Toxicity in KK-Ay diabetic mouse model assessed as increase in body weight at 1.1 mg added daily to normal chow pellets for 8 weeks; format: organism-based; conditions: in vivo, po, 1344 h
Mus musculus [26] = species: Mus musculus; experiment: Effect on Gcgr mRNA expression levels in liver of KK-Ay diabetic mouse model at 0.4 to 1.1 mg added daily to normal chow pellets for 10 weeks by qRT-PCR analysis; format: functional, organism-based
Mus musculus [27] = species: Mus musculus; experiment: Effect on IRS2 mRNA expression levels in adipose tissue of KK-Ay diabetic mouse model at 0.4 to 1.1 mg added daily to normal chow pellets for 10 weeks by qRT-PCR analysis; format: functional, organism-based
Mus musculus [28] = species: Mus musculus; experiment: Effect on Abca1 mRNA expression levels in muscle of KK-Ay diabetic mouse model at 0.4 to 1.1 mg added daily to normal chow pellets for 10 weeks by qRT-PCR analysis; format: functional, organism-based
Mus musculus [29] = species: Mus musculus; experiment: Effect on SOD1 mRNA expression levels in adipose tissue of KK-Ay diabetic mouse model at 0.4 to 1.1 mg added daily to normal chow pellets for 10 weeks by qRT-PCR analysis; format: functional, organism-based
Mus musculus [30] = species: Mus musculus; experiment: Effect on AMPKalpha2 mRNA expression levels in adipose tissue of KK-Ay diabetic mouse model at 0.4 to 1.1 mg added daily to normal chow pellets for 10 weeks by qRT-PCR analysis; format: functional, organism-based
Mus musculus [31] = species: Mus musculus; experiment: Effect on Hprt1 mRNA expression levels in adipose tissue of KK-Ay diabetic mouse model at 0.4 to 1.1 mg added daily to normal chow pellets for 10 weeks by qRT-PCR analysis; format: functional, organism-based
Mus musculus [32] = species: Mus musculus; experiment: Effect on Mtor mRNA expression levels in liver of KK-Ay diabetic mouse model at 0.4 to 1.1 mg added daily to normal chow pellets for 10 weeks by qRT-PCR analysis; format: functional, organism-based
Mus musculus [33] = species: Mus musculus; experiment: Effect on JNK1 mRNA expression levels in liver of KK-Ay diabetic mouse model at 0.4 to 1.1 mg added daily to normal chow pellets for 10 weeks by qRT-PCR analysis; format: functional, organism-based

Structure (SMILES): C[C@@]12CCc3occc3[C@H]1CC[C@@]13C[C@H](CC[C@H]12)[C@@](O)(CO)C3
- Activity (Mus musculus [1]): inactive
- Activity (Mus musculus [2]): inactive
- Activity (Mus musculus [3]): inactive
- Activity (Mus musculus [4]): 5.4 g
- Activity (Mus musculus [5]): inactive
- Activity (Mus musculus [6]): inactive
- Activity (Mus musculus [7]): inactive
- Activity (Mus musculus [8]): inactive
- Activity (Mus musculus [9]): inactive
- Activity (Mus musculus [10]): inactive
- Activity (Mus musculus [11]): inactive
- Activity (Mus musculus [12]): inactive
- Activity (Mus musculus [13]): 17.3 mmol/L
- Activity (Mus musculus [14]): inactive
- Activity (Mus musculus [15]): inactive
- Activity (Mus musculus [16]): inactive
- Activity (Mus musculus [17]): inactive
- Activity (Mus musculus [18]): inactive
- Activity (Mus musculus [19]): inactive
- Activity (Mus musculus [20]): inactive
- Activity (Mus musculus [21]): inactive
- Activity (Mus musculus [22]): inactive
- Activity (Mus musculus [23]): inactive
- Activity (Mus musculus [24]): Active
- Activity (Mus musculus [25]): > 3 g
- Activity (Mus musculus [26]): inactive
- Activity (Mus musculus [27]): inactive
- Activity (Mus musculus [28]): inactive
- Activity (Mus musculus [29]): inactive
- Activity (Mus musculus [30]): inactive
- Activity (Mus musculus [31]): inactive
- Activity (Mus musculus [32]): inactive
- Activity (Mus musculus [33]): inactive

Reference: ChEMBL document CHEMBL4190297, “Cafestol, a Bioactive Substance in Coffee, Has Antidiabetic Properties in KKAy Mice” (J Nat Prod, 2017)
